≈ marks a conversion by molar mass, not a printed value. Like-named read-outs stand apart in the source and are kept apart here.
Key:
Assay type in all cases: cell-based, Clostridium difficile
[1] = system: C. difficile P20; test: MIC and MBC, broth microdilution; settings: Clostridioides difficile
Experimental: (§1) Antibacterial activity of Diiodohydroxyquinoline against a wide panel of Clostridium difficile strains. […] MIC50 and MIC90 are the minimum concentration of each agent that inhibited growth of 50% and 90% of the tested isolates, respectively. The minimum bactericidal concentration (MBC) of these drugs was tested by plating 5 μL from wells with no growth onto BHIS agar plates. The MBC was categorized as the lowest concentration that reduced bacterial growth by 99.9% MIC50 and MIC90 are the minimum concentration of each agent that inhibited the growth of 50% and 90% of the tested isolates, respectively. The minimum bactericidal concentration (MBC) of these drugs was tested by plating 5 μL from wells with no growth onto BHIS agar plates. The MBC was categorized as the lowest concentration that reduced bacterial growth by 99.9% [29-31].

[2] = system: C. difficile P19; test: MIC and MBC, broth microdilution; settings: Clostridioides difficile
Experimental: as §1

[3] = system: C. difficile ATCC 43255; test: MIC and MBC, broth microdilution; settings: Clostridioides difficile, ATCC43255
Experimental: as §1

[4] = system: C. difficile I9; test: MIC and MBC, broth microdilution; settings: Clostridioides difficile
Experimental: as §1

[5] = system: C. difficile I11; test: MIC and MBC, broth microdilution; settings: Clostridioides difficile
Experimental: as §1

[6] = system: C. difficile P15; test: MIC and MBC, broth microdilution; settings: Clostridioides difficile
Experimental: as §1

[7] = system: C. difficile NR-49288; test: MIC and MBC, broth microdilution; settings: Clostridioides difficile, NR49288
Experimental: as §1

[8] = system: C. difficile P30; test: MIC and MBC, broth microdilution; settings: Clostridioides difficile
Experimental: as §1

[9] = system: C. difficile I6; test: MIC and MBC, broth microdilution; settings: Clostridioides difficile
Experimental: as §1

[10] = system: C. difficile I13; test: MIC and MBC, broth microdilution; settings: Clostridioides difficile
Experimental: as §1

[11] = system: C. difficile P5; test: MIC and MBC, broth microdilution; settings: Clostridioides difficile
Experimental: as §1

[12] = system: C. difficile P6; test: MIC and MBC, broth microdilution; settings: Clostridioides difficile
Experimental: as §1

[13] = system: C. difficile NR-49278; test: MIC and MBC, broth microdilution; settings: Clostridioides difficile, NR49278
Experimental: as §1

[14] = system: C. difficile I10; test: MIC and MBC, broth microdilution; settings: Clostridioides difficile
Experimental: as §1

[15] = system: C. difficile ATCC 1801; test: MIC and MBC, broth microdilution; settings: Clostridioides difficile, ATCC1801
Experimental: as §1

[16] = system: C. difficile NR-49285; test: MIC and MBC, broth microdilution; settings: Clostridioides difficile, NR49285
Experimental: as §1

[17] = system: C. difficile HM-745; test: MIC and MBC, broth microdilution; settings: Clostridioides difficile, HM745
Experimental: as §1

[18] = system: C. difficile P3; test: MIC and MBC, broth microdilution; settings: Clostridioides difficile
Experimental: as §1

[19] = system: C. difficile ATCC BAA-1870; test: Time kill kinetics assay; settings: C. difficile ATCC BAA-1870, 5×MIC
Experimental: (§2) Time kill kinetics assay. In order to examine the killing kinetics of DIHQ, a time kill kinetics assay was performed against Clostridium difficile ATCC BAA 1870 and C. difficile NR-49277 as described previously. […] Aliquots were collected from each treatment after 0, 4, 6, 8, 12, and 24 hours of incubation at 37° C. and subsequently serially diluted and plated for viable CFU/mL determination.

[20] = system: C. difficile NR-49277; test: Time kill kinetics assay; settings: C. difficile NR-49277, 5×MIC
Experimental: as §2

[21] = system: C. difficile ATCC 43255; test: Checkerboard assay, DIHQ with metronidazole or vancomycin
Experimental: (§3) The fractional inhibitory concentration index (ΣFIC) was calculated for each interaction. Interactions where the ΣFIC index was ≤0.5 were categorized as synergistic (SYN).

[22] = system: C. difficile I9; test: as above
Experimental: as §3

[23] = system: C. difficile ATCC BAA-1870; test: as above
Experimental: as §3

Structure (SMILES): Cc1ncc([N+](=O)[O-])n1CCO [Metronidazole, metronidazole]
- MBC ([1]; C. difficile P20, read-out: MBC): 0.25 µg/mL (≈ 1.46 µM)
- MIC ([1]; C. difficile P20, read-out: MIC): 0.25 µg/mL (≈ 1.46 µM)
- MBC ([2]; C. difficile P19, read-out: MBC): 0.25 µg/mL (≈ 1.46 µM)
- MIC ([2]; C. difficile P19, read-out: MIC): 0.25 µg/mL (≈ 1.46 µM)
- MBC ([3]; C. difficile ATCC 43255, read-out: MBC): 0.25 µg/mL (≈ 1.46 µM)
- MIC ([3]; C. difficile ATCC 43255, read-out: MIC): 0.25 µg/mL (≈ 1.46 µM)
- MBC ([4]; C. difficile I9, read-out: MBC): 0.06 µg/mL (≈ 0.351 µM)
- MIC ([4]; C. difficile I9, read-out: MIC): 0.06 µg/mL (≈ 0.351 µM)
- MBC ([5]; C. difficile I11, read-out: MBC): 0.25 µg/mL (≈ 1.46 µM)
- MIC ([5]; C. difficile I11, read-out: MIC): 0.25 µg/mL (≈ 1.46 µM)
- MBC ([6]; C. difficile P15, read-out: MBC): 0.25 µg/mL (≈ 1.46 µM)
- MIC ([6]; C. difficile P15, read-out: MIC): 0.25 µg/mL (≈ 1.46 µM)
- MBC ([7]; C. difficile NR-49288, read-out: MBC): 0.25 µg/mL (≈ 1.46 µM)
- MIC ([7]; C. difficile NR-49288, read-out: MIC): 0.25 µg/mL (≈ 1.46 µM)
- MBC ([8]; C. difficile P30, read-out: MBC): 0.5 µg/mL (≈ 2.92 µM)
- MIC ([8]; C. difficile P30, read-out: MIC): 0.5 µg/mL (≈ 2.92 µM)
- MBC ([9]; C. difficile I6, read-out: MBC): 0.25 µg/mL (≈ 1.46 µM)
- MIC ([9]; C. difficile I6, read-out: MIC): 0.25 µg/mL (≈ 1.46 µM)
- MBC ([10]; C. difficile I13, read-out: MBC): 0.5 µg/mL (≈ 2.92 µM)
- MIC ([10]; C. difficile I13, read-out: MIC): 0.25 µg/mL (≈ 1.46 µM)
- MBC ([11]; C. difficile P5, read-out: MBC): 0.25 µg/mL (≈ 1.46 µM)
- MIC ([11]; C. difficile P5, read-out: MIC): 0.25 µg/mL (≈ 1.46 µM)
- MBC ([12]; C. difficile P6, read-out: MBC): 0.25 µg/mL (≈ 1.46 µM)
- MIC ([12]; C. difficile P6, read-out: MIC): 0.25 µg/mL (≈ 1.46 µM)
- MBC ([13]; C. difficile NR-49278, read-out: MBC): 0.5 µg/mL (≈ 2.92 µM)
- MIC ([13]; C. difficile NR-49278, read-out: MIC): 0.25 µg/mL (≈ 1.46 µM)
- MBC ([14]; C. difficile I10, read-out: MBC): 0.25 µg/mL (≈ 1.46 µM)
- MIC ([14]; C. difficile I10, read-out: MIC): 0.25 µg/mL (≈ 1.46 µM)
- MBC ([15]; C. difficile ATCC 1801, read-out: MBC): 0.25 µg/mL (≈ 1.46 µM)
- MIC ([15]; C. difficile ATCC 1801, read-out: MIC): 0.25 µg/mL (≈ 1.46 µM)
- MBC ([16]; C. difficile NR-49285, read-out: MBC): 0.5 µg/mL (≈ 2.92 µM)
- MIC ([16]; C. difficile NR-49285, read-out: MIC): 0.25 µg/mL (≈ 1.46 µM)
- MBC ([17]; C. difficile HM-745, read-out: MBC): 0.5 µg/mL (≈ 2.92 µM)
- MIC ([17]; C. difficile HM-745, read-out: MIC): 0.5 µg/mL (≈ 2.92 µM)
- MBC ([18]; C. difficile P3, read-out: MBC): 0.25 µg/mL (≈ 1.46 µM)
- MIC ([18]; C. difficile P3, read-out: MIC): 0.25 µg/mL (≈ 1.46 µM)
- time required to generate a 3-log10 reduction in CFU/mL ([19]; 37° C.): 12 hours
- time required to generate a 3-log10 reduction in CFU/mL ([20]; 37° C.): 12 hours
- MIC of metronidazole combined with DIHQ ([21]; C. difficile ATCC 43255): 0.015 µg/mL
- MIC of metronidazole combined with DIHQ ([22]; C. difficile I9): 0.015 µg/mL
- MIC of metronidazole combined with DIHQ ([23]; C. difficile ATCC BAA-1870): 0.015 µg/mL

Structure (SMILES): CN[C@H](CC(C)C)C(=O)N[C@H]1C(=O)N[C@@H](CC(N)=O)C(=O)N[C@H]2C(=O)N[C@H]3C(=O)N[C@H](C(=O)N[C@H](C(=O)O)c4cc(O)cc(O)c4-c4cc3ccc4O)[C@H](O)c3ccc(c(Cl)c3)Oc3cc2cc(c3O[C@@H]2O[C@H](CO)[C@@H](O)[C@H](O)[C@H]2O[C@H]2C[C@](C)(N)[C@H](O)[C@H](C)O2)Oc2ccc(cc2Cl)[C@H]1O [Vancomycin, vancomycin]
- MBC ([1]; P20): 1 µg/mL (≈ 0.69 µM)
- MIC ([1]; P20): 1 µg/mL (≈ 0.69 µM)
- MBC ([2]; P19): 1 µg/mL (≈ 0.69 µM)
- MIC ([2]; P19): 1 µg/mL (≈ 0.69 µM)
- MBC [3]: 1 µg/mL (≈ 0.69 µM)
- MIC [3]: 1 µg/mL (≈ 0.69 µM)
- MBC ([4]; I9): 0.5 µg/mL (≈ 0.345 µM)
- MIC ([4]; I9): 0.5 µg/mL (≈ 0.345 µM)
- MBC ([5]; I11): 1 µg/mL (≈ 0.69 µM)
- MIC ([5]; I11): 1 µg/mL (≈ 0.69 µM)
- MBC ([6]; P15): 1 µg/mL (≈ 0.69 µM)
- MIC ([6]; P15): 1 µg/mL (≈ 0.69 µM)
- MBC [7]: 1 µg/mL (≈ 0.69 µM)
- MIC [7]: 0.5 µg/mL (≈ 0.345 µM)
- MBC ([8]; P30): 0.5 µg/mL (≈ 0.345 µM)
- MIC ([8]; P30): 0.5 µg/mL (≈ 0.345 µM)
- MBC ([9]; I6): 0.5 µg/mL (≈ 0.345 µM)
- MIC ([9]; I6): 0.5 µg/mL (≈ 0.345 µM)
- MBC ([10]; I13): 1 µg/mL (≈ 0.69 µM)
- MIC ([10]; I13): 1 µg/mL (≈ 0.69 µM)
- MBC ([11]; P5): 0.5 µg/mL (≈ 0.345 µM)
- MIC ([11]; P5): 0.5 µg/mL (≈ 0.345 µM)
- MBC ([12]; P6): 1 µg/mL (≈ 0.69 µM)
- MIC ([12]; P6): 1 µg/mL (≈ 0.69 µM)
- MBC [13]: 0.5 µg/mL (≈ 0.345 µM)
- MIC [13]: 0.25 µg/mL (≈ 0.173 µM)
- MBC ([14]; I10): 1 µg/mL (≈ 0.69 µM)
- MIC ([14]; I10): 0.5 µg/mL (≈ 0.345 µM)
- MBC [15]: 1 µg/mL (≈ 0.69 µM)
- MIC [15]: 1 µg/mL (≈ 0.69 µM)
- MBC [16]: 0.5 µg/mL (≈ 0.345 µM)
- MIC [16]: 0.5 µg/mL (≈ 0.345 µM)
- MBC [17]: 1 µg/mL (≈ 0.69 µM)
- MIC [17]: 1 µg/mL (≈ 0.69 µM)
- MBC ([18]; P3): 1 µg/mL (≈ 0.69 µM)
- MIC ([18]; P3): 1 µg/mL (≈ 0.69 µM)
- reduction of bacterial burden within 24 hours ([19]; 24 hours): 1.7 log10 CFU/mL
- reduction of bacterial burden within 24 hours ([20]; 24 hours): 1.22 log10 CFU/mL
- MIC of vancomycin combined with DIHQ ([21]; C. difficile ATCC 43255): 0.125 µg/mL
- MIC ([21]; Clostridioides difficile, ATCC43255, read-out: MIC alone): 1 µg/mL
- MIC of vancomycin combined with DIHQ ([22]; C. difficile I9): 0.125 µg/mL
- MIC ([22]; Clostridioides difficile, I9, read-out: MIC alone): 1 µg/mL
- MIC of vancomycin combined with DIHQ ([23]; C. difficile ATCC BAA-1870): 0.125 µg/mL
- MIC ([23]; Clostridioides difficile, ATCCBAA1870, read-out: MIC alone): 1 µg/mL
